Results published in US9040749B2, “Borazine derivatives” (UNIVERSITE DE NAMUR, priority 2011, dated 2015).

Key:
[1] = Solubility in organic solvents; format: physicochemical
[2] = Stability at air and room temperature, NMR spectra at t=0 and t=10 months; format: physicochemical; conditions: NMR spectra at t=0 and t=10 months (FIG. 5)

Solubility ([1]; solvent: Chloroform)	Solubility ([1]; solvent: Dichloromethane)	Solubility ([1]; solvent: Ethyl acetate)	Solubility ([1]; solvent: Toluene)	Stability at air and room temperature [2]	Solubility (miscibility) ([1]; compound is an oil, toluene, ethyl acetate, dichloromethane, benzene and chloroform)	Structure (SMILES)
54 Milligram/milliliter	102 Milligram/milliliter	62 Milligram/milliliter	45 Milligram/milliliter	excellent stability		Cc1cc(C)c(B2N(c3ccccc3)B(c3c(C)cc(C)cc3C)N(c3ccccc3)B(c3c(C)cc(C)cc3C)N2c2ccccc2)c(C)c1 [borazine derivative 1, N,N′,N″-triphenyl-B,B,B″-tri(2,4,6-trimethyl)phenyl borazine]
					miscible	CCCCCCCCCCCCc1ccc(N2B(c3c(C)cc(C)cc3C)N(c3ccc(CCCCCCCCCCCC)cc3)B(c3c(C)cc(C)cc3C)N(c3ccc(CCCCCCCCCCCC)cc3)B2c2c(C)cc(C)cc2C)cc1 [borazine derivative 2, N,N′,N″-tri(4-dodecyl)phenyl-B,B,B″-tri(2,4,6-trimethyl)phenyl borazine]
